Measured values: paper PMC2656214, “A circuit supporting concentration-invariant odor perception in Drosophila” (Journal of Biology, 2009)

Key:
Experiment in all cases: G-CaMP calcium imaging of OSN axon terminals
Type in all cases: cell-based
Settings in all cases: 10^-2 odor dilution in paraffin oil, 1 s pulse
Or42a = biological target: T1, Or42a (Drosophila melanogaster, UniProt Q9V9I2)
T1 construct: native receptor in Or42a olfactory sensory neuron of larva; G-CaMP calcium imaging; with Odorant receptor coreceptor
T1 sequence (Q9V9I2 1-406): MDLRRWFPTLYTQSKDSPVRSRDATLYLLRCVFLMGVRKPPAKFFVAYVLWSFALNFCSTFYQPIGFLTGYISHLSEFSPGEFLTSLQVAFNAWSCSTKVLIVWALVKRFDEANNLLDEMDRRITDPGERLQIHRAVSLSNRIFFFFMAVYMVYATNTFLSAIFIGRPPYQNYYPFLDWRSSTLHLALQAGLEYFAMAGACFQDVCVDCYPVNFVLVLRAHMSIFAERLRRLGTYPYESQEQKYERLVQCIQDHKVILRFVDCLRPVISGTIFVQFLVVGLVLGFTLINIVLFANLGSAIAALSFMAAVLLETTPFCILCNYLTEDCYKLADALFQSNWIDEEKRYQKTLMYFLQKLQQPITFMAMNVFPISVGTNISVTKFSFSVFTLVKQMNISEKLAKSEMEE
T1 sequence (Q9VNB5 1-486 partner): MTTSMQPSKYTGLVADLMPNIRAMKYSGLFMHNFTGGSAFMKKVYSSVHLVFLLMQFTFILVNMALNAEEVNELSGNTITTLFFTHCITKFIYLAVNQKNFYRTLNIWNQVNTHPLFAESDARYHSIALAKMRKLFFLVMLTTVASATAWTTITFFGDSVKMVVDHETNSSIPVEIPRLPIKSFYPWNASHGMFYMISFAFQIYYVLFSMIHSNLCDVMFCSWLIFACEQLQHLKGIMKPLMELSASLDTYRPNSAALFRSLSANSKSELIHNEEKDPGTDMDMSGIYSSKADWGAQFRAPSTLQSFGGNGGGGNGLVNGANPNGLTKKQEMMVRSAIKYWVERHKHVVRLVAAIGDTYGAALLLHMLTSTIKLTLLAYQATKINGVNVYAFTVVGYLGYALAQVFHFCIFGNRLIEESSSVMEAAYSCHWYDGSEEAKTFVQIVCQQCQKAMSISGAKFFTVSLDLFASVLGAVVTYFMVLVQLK

Or35a = biological target: T2, Or35a (Drosophila melanogaster, UniProt Q9V3Q2)
T2 construct: native receptor in Or35a olfactory sensory neuron of larva; G-CaMP1.3 calcium imaging at axon terminals; with Odorant receptor coreceptor
T2 sequence (Q9V3Q2 1-409): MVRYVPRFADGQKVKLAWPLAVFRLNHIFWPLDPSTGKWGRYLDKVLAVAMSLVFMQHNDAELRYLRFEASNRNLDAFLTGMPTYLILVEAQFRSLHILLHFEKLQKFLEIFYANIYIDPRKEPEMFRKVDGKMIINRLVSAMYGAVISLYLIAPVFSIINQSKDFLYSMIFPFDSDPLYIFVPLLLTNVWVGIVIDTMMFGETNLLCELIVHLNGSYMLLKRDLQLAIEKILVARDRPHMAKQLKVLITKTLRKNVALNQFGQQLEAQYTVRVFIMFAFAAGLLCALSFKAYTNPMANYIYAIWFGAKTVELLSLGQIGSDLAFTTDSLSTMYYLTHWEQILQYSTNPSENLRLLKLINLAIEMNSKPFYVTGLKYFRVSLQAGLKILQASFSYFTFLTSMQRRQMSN
T2 sequence (Q9VNB5 1-486 partner): T1 sequence (Q9VNB5 1-486 partner)

Or82a = biological target: T3, Or82a (Drosophila melanogaster, UniProt P82986)
T3 construct: native receptor in Or82a olfactory sensory neuron of larva; G-CaMP1.3 calcium imaging at axon terminals; with Odorant receptor coreceptor
T3 sequence (P82986 1-385): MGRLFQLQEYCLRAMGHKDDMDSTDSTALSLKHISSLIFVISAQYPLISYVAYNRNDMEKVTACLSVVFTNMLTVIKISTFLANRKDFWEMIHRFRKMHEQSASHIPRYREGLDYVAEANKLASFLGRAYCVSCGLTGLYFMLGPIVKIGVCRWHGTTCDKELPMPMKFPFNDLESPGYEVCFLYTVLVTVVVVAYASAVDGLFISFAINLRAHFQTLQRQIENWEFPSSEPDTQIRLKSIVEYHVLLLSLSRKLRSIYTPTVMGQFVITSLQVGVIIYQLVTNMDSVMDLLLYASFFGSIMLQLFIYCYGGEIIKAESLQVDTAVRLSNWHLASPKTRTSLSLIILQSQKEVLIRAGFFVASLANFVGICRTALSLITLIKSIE
T3 sequence (Q9VNB5 1-486 partner): T1 sequence (Q9VNB5 1-486 partner)

| SMILES | G-CaMP calcium imaging of OSN axon terminals (Or35a) | also measured |
| --- | --- | --- |
| CCCCCC(C)=O [2-Heptanone] | – | G-CaMP calcium imaging of OSN axon terminals (Or42a): 2-Heptanone, which selectively activates Or42a but not Or42b OSNs |
| O=C1CCCCC1 [cyclohexanone] | hexyl acetate and cyclohexanone selectively activated only Or35a | – |
| CC(=O)OC/C=C(\C)CCC=C(C)C [geranyl acetate] | – | G-CaMP calcium imaging of OSN axon terminals (Or82a): Or82a-expressing neurons responded only to geranyl acetate |
| CCCCCCOC(C)=O [hexyl acetate] | hexyl acetate and cyclohexanone selectively activated only Or35a | – |
